The test concerns T1, AuAHLA.
T1 construct: gene ahla; full ORF of 808 residues expressed untagged in Rhodococcus sp; T104, secreted; signal peptide of 34-35 aa removed
Put plainly: hydrolysis, o-phthalaldehyde fluorometric assay of released primary amine. The format is biochemical, Actinoplanes utahensis. To be noted: 0.2 M potassium phosphate pH 8.0, 45 °C. From the text: hydrolysis, o-phthalaldehyde fluorometric assay of released primary amine on AuAHLA

This passage reports Km results from PMC8388760, “Novel Bifunctional Acylase from Actinoplanes utahensis: A Versatile Enzyme to Synthesize Antimicrobial Compounds and Use in Quorum Quenching Processes” (Antibiotics, 2021).

Structures are written as SMILES.

The term Km denotes the concentration of substrate that gives half-maximal velocity. Take `CCCCCCCC(=O)N[C@H]1CCOC1=O` [C8-HSL, N-octanoyl-L-homoserine lactone]: the Km (20% (v/v) DMSO) is 860 ± 150 µM.

In the case of `CC1(C)S[C@@H]2[C@H](NC(=O)Cc3ccccc3)C(=O)N2[C@H]1C(=O)O` [Penicillin G], the Km worked out at 1210 ± 300 µM.

Take `CC1(C)S[C@@H]2[C@H](NC(=O)COc3ccccc3)C(=O)N2[C@H]1C(=O)O` [Penicillin V]: the Km is 472 ± 50 µM.

For `CCCCCCCCCC(=O)CC(=O)N[C@H]1CCOC1=O` [3-oxo-C12-HSL, N-(3-oxododecanoyl)-L-homoserine lactone], the Km (20% (v/v) DMSO) was determined as 92 ± 21 µM.

On to `CCCCCC(=O)N[C@@H]1C(=O)N2[C@@H]1SC(C)(C)[C@@H]2C(=O)O` [Penicillin dihidroF], for which the Km is 199 ± 20 µM.

For the molecule `CCCCCCCC(=O)N[C@@H]1C(=O)N2[C@@H]1SC(C)(C)[C@@H]2C(=O)O` [Penicillin K], the Km was 675 ± 190 µM.

Regarding `CCCCCC(=O)CC(=O)N[C@H]1CCOC1=O` [3-oxo-C8-HSL, N-(3-oxooctanoyl)-L-homoserine lactone], where the note is “20% (v/v) DMSO”, the Km amounted to 1040 ± 420 µM.

Regarding `CCCCCCCCCCCC(=O)N[C@H]1CCOC1=O` [C12-HSL, N-dodecanoyl-L-homoserine lactone], the Km (20% (v/v) DMSO) was determined as 8 ± 2 µM.

As to `CCCCCCCC(=O)CC(=O)N[C@H]1CCOC1=O` [3-oxo-C10-HSL, N-(3-oxodecanoyl)-L-homoserine lactone], the Km (20% (v/v) DMSO) worked out at 238 ± 86 µM.

Regarding `CCCCCCCCCC(=O)N[C@H]1CCOC1=O` [C10-HSL, N-decanoyl-L-homoserine lactone], the Km (20% (v/v) DMSO) was 84 ± 21 µM.

Turning to `CCCCCC(=O)N[C@H]1CCOC1=O` [C6-HSL, N-hexanoyl-L-homoserine lactone], the Km (20% (v/v) DMSO) was found to be 2250 ± 500 µM.
